Patent US11339171B2, “MDM2 inhibitors” (Gan & Lee Pharmaceuticals, priority 2017, dated 2022)

Key:
MDM2 = biological target: T1, MDM2 (Homo sapiens, UniProt Q00987); test: Inhibition test of MDM2-P53 (GST-MDM2, Biotin-P53, Anti-GST-Tb, SA-XL665); format: binding
T1 construct: made in house
Outline: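 Compounds, serially diluted 5-fold (twelve concentrations), were shaken for 90 min at 25° C with a mix of GST-MDM2 (4 nM final), Biotin-P53, anti-GST-Tb and SA-XL665. Buffer: 1×PBS, 0.1% BSA, 5 mM DTT, 1 mM AEBSF; signal read on a microplate reader.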

[1] = tested on: human osteosarcoma cell line SJSA-1; test: Inhibition of proliferation of human osteosarcoma cell line SJSA-1 (DAPI staining, In Cell Analyzer); conditions: Homo sapiens, SJSA-1, 72 h, read-out: IC50 (nM), inhibitory activity on proliferation of human osteosarcoma cell line SJSA-1, SJSA-1, incubated 72 h

T1 sequence (Q00987 whole entry): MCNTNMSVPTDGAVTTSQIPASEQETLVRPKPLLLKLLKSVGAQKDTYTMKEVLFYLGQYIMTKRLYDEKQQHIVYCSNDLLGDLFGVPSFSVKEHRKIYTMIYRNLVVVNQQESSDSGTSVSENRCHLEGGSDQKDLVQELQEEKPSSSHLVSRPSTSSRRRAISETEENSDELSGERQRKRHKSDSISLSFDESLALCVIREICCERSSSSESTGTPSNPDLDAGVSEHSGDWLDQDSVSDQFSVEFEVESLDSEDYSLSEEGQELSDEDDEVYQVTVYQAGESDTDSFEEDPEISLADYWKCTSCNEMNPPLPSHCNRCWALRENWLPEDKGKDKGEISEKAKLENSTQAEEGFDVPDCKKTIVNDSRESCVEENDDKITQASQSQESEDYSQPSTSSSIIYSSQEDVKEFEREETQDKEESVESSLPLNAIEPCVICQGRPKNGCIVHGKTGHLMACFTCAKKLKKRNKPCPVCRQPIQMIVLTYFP

## Cc1ccc(Cl)cc1N1C(=O)c2nc(-c3ccccc3OC(F)(F)F)n(C(C)C)c2[C@]12C(=O)Nc1cc(Cl)ccc12 [Example R-31, (R)-6-chloro-5′-(5-chloro-2-methylphenyl)-3′-isopropyl-2′-(2-(trifluoromethoxy)phenyl)-3′H-spiro[dihydroindole-3,4′-pyrrolo[3,4-d]imidazole]-2,6′(5′H)-dione]
MDM2
  IC50: 1400 nM
[1]
  IC50: 3580 nM

## COc1cc(C(C)C)ccc1-c1nc2c(n1C(C)C)[C@]1(C(=O)Nc3cc(Cl)ccc31)N(c1cc(Cl)ccc1C)C2=O [Example R-32, (R)-6-chloro-5′-(5-chloro-2-methylphenyl)-3′-isopropyl-2′-(4-isopropyl-2-methoxyphenyl)-3′H-spiro[dihydroindole-3,4′-pyrrolo[3,4-d]imidazole]-2,6′(5′H)-dione]
MDM2
  IC50: 1100 nM
[1]
  IC50: 8200 nM

## CCc1ccc(-c2nc3c(n2C(C)C)[C@]2(C(=O)Nc4cc(Cl)ccc42)N(c2cc(Cl)ccc2C)C3=O)c(OC)c1 [Example R-33, (R)-6-chloro-5′-(5-chloro-2-methylphenyl)-2′-(4-ethyl-2-methoxyphenyl)-3′-isopropyl-3′H-spiro[dihydroindole-3,4′-pyrrolo[3,4-d]imidazole]-2,6′(5′H)-dione]
MDM2
  IC50: 592 nM
[1]
  IC50: 4890 nM

## COc1cc(-c2nc3c(n2C(C)C)[C@]2(C(=O)Nc4cc(Cl)ccc42)N(c2cc(Cl)ccc2C)C3=O)c(OC)cn1 [Example R-40, (R)-6-chloro-5′-(5-chloro-2-methylphenyl)-2′-(2,5-dimethoxypyridin-4-yl)-3′-isopropyl-3′H-spiro[dihydroindole-3,4′-pyrrolo[3,4-d]imidazole]-2,6′(5′H)-dione]
MDM2
  IC50: 322 nM
[1]
  IC50: 3090 nM

## COc1ncc(-c2nc3c(n2C(C)C)[C@]2(C(=O)Nc4cc(Cl)ccc42)N(c2cc(Cl)cnc2C)C3=O)c(OC)n1 [Example R-42, (R)-6-chloro-5′-(5-chloro-2-methylpyridin-3-yl)-2′-(2,4-dimethoxypyrimidin-5-yl)-3′-isopropyl-3′H-spiro[dihydroindole-3,4′-pyrrolo[3,4-d]imidazole]-2,6′(5′H)-dione]
MDM2
  IC50: 364 nM
[1]
  IC50: 4560 nM

## COc1ncc(-c2nc3c(n2C(C)C)[C@]2(C(=O)Nc4cc(Cl)ccc42)N(c2cc(Cl)ccc2F)C3=O)c(OC)n1 [Example R-44, (R)-6-chloro-5′-(5-chloro-2-fluorophenyl)-2′-(2,4-dimethoxypyrimidin-5-yl)-3′-isopropyl-3′H-spiro[dihydroindole-3,4′-pyrrolo[3,4-d]imidazole]-2,6′(5′H)-dione]
MDM2
  IC50: 51.1 nM
[1]
  IC50: 1330 nM

## COc1ncc(-c2nc3c(n2C(C)C)[C@]2(C(=O)Nc4cc(Cl)ccc42)N(c2cc(F)cc(Cl)c2)C3=O)c(OC)n1 [Example R-45, (R)-6-chloro-5′-(3-chloro-5-fluorophenyl)-2′-(2,4-dimethoxypyrimidin-5-yl)-3′-isopropyl-3′H-spiro[dihydroindole-3,4′-pyrrolo[3,4-d]imidazole]-2,6′(5′H)-dione]
MDM2
  IC50: 171 nM
[1]
  IC50: 4310 nM

## COc1cc(CN(C)C)ccc1-c1nc2c(n1C(C)C)[C@]1(C(=O)Nc3cc(Cl)ccc31)N(c1cc(Cl)ccc1C)C2=O [Example R-47, (R)-6-chloro-5′-(5-chloro-2-methylphenyl)-2′-(4-((dimethylamino)methyl)-2-methoxyphenyl)-3′-isopropyl-3′H-spiro[dihydroindole-3,4′-pyrrolo[3,4-d]imidazole]-2,6′(5′H)-dione]
MDM2
  IC50: 210 nM
[1]
  IC50: 3850 nM

## COc1ncc(-c2nc3c(n2C(C)C)[C@]2(C(=O)Nc4cc(Cl)ccc42)N(c2ccc(OC)c(Cl)c2)C3=O)c(OC)n1 [Example R-48, (R)-6-chloro-5′-(3-chloro-4-methoxyphenyl)-2′-(2,4-dimethoxypyrimidin-5-yl)-3′-isopropyl-3′H-spiro[dihydroindole-3,4′-pyrrolo[3,4-d]imidazole]-2,6′(5′H)-dione]
MDM2
  IC50: 196 nM
[1]
  IC50: 3630 nM

## COc1cc(N)ccc1-c1nc2c(n1C(C)C)[C@]1(C(=O)Nc3cc(Cl)ccc31)N(c1cc(Cl)ccc1C)C2=O [Example R-49, (R)-2′-(4-amino-2-methoxyphenyl)-6-chloro-5′-(5-chloro-2-methylphenyl)-3′-isopropyl-3′H-spiro[dihydroindole-3,4′-pyrrolo[3,4-d]imidazole]-2,6′(5′H)-dione]
MDM2
  IC50: 71.4 nM
[1]
  IC50: 1490 nM

## COc1ncc(-c2cc3c(n2C(C)C)[C@]2(C(=O)Nc4cc(Cl)ccc42)N(c2cc(Cl)ccc2C)C3=O)c(OC)n1 [Example R-50, (R)-6-chloro-5′-(5-chloro-2-methylphenyl)-2′-(2,4-dimethoxypyrimidin-5-yl)-1′-isopropyl-1′H-spiro[dihydroindole-3,6′-pyrrolo[3,4-b]pyrrole]-2,4′(5′H)-dione]
MDM2
  IC50: 20400 nM
[1]
  IC50: 8430 nM

## COc1ncc(-c2nc3c(n2C(C)C)[C@]2(C(=O)Nc4cc(Cl)ccc42)N(c2cc(C)cc(Cl)c2)C3=O)c(OC)n1 [Example R-51, (R)-6-chloro-5′-(3-chloro-5-methylphenyl)-2′-(2,4-dimethoxypyrimidin-5-yl)-3′-isopropyl-3′H-spiro[dihydroindole-3,4′-pyrrolo[3,4-d]imidazole]-2,6′(5′H)-dione]
MDM2
  IC50: 547 nM
[1]
  IC50: 9520 nM

## COc1ccc(-c2nc3c(n2C(C)C)[C@]2(C(=O)Nc4cc(Cl)ccc42)N(c2cc(Cl)c(=O)n(C)c2)C3=O)c(OC)c1 [Example R-52, (R)-6-chloro-5′-(5-chloro-1-methyl-6-oxo-1,6-dihydropyridin-3-yl)-2′-(2,4-dimethoxyphenyl)-3′-isopropyl-3′H-spiro[dihydroindole-3,4′-pyrrolo[3,4-d]imidazole]-2,6′(5′H)-dione]
MDM2
  IC50: 540 nM
[1]
  IC50: 22400 nM

## COc1ccccc1-c1nc2c(n1C(C)C)[C@]1(C(=O)Nc3cc(Cl)ccc31)N(c1cc(Cl)c(=O)n(C)c1)C2=O [Example R-53, (R)-6-chloro-5′-(5-chloro-1-methyl-6-oxo-1,6-dihydropyridin-3-yl)-3′-isopropyl-2′-(2-methoxyphenyl)-3′H-spiro[dihydroindole-3,4′-pyrrolo[3,4-d]imidazole]-2,6′(5′H)-dione]
MDM2
  IC50: 3770 nM
[1]
  IC50: 77400 nM

## COc1ncc(-c2nc3c(n2C(C)C)[C@]2(C(=O)Nc4cc(Cl)ccc42)N(c2cccc(C)c2)C3=O)c(OC)n1 [Example R-55, (R)-6-chloro-2′-(2,4-dimethoxypyrimidin-5-yl)-3′-isopropyl-5′-(m-tolyl)-3′H-spiro[dihydroindole-3,4′-pyrrolo[3,4-d]imidazole]-2,6′(5′H)-dione]
MDM2
  IC50: 437 nM
[1]
  IC50: 9940 nM

## COc1ncc(-c2nc3c(n2C(C)C)[C@]2(C(=O)Nc4cc(Cl)ccc42)N(c2cc(C)ccc2C)C3=O)c(OC)n1 [Example R-56, (R)-6-chloro-2′-(2,4-dimethoxypyrimidin-5-yl)-5′-(2,5-dimethylphenyl)-3′-isopropyl-3′H-spiro[dihydroindole-3,4′-pyrrolo[3,4-d]imidazole]-2,6′(5′H)-dione]
MDM2
  IC50: 155 nM
[1]
  IC50: 3480 nM

## COc1cccc(F)c1-c1nc2c(n1C(C)C)[C@]1(C(=O)Nc3cc(Cl)ccc31)N(c1cc(Cl)ccc1C)C2=O [Example R-57, (R)-6-chloro-5′-(5-chloro-2-methylphenyl)-2′-(2-fluoro-6-methoxyphenyl)-3′-isopropyl-3′H-spiro[dihydroindole-3,4′-pyrrolo[3,4-d]imidazole]-2,6′(5′H)-dione]
MDM2
  IC50: 427 nM
[1]
  IC50: 3960 nM

## COc1cc(Cl)cc(N2C(=O)c3nc(-c4cnc(OC)nc4OC)n(C(C)C)c3[C@]23C(=O)Nc2cc(Cl)ccc23)c1 [Example R-58, (R)-6-chloro-5′-(3-chloro-5-methoxyphenyl)-2′-(2,4-dimethoxypyrimidin-5-yl)-3′-isopropyl-3′H-spiro[dihydroindole-3,4′-pyrrolo[3,4-d]imidazole]-2,6′(5′H)-dione]
MDM2
  IC50: 1430 nM
[1]
  IC50: 5890 nM

## COc1ccc(-c2nc3c(n2C(C)C)[C@]2(C(=O)Nc4cc(Cl)ccc42)N(c2cc(Cl)cnc2C)C3=O)c(OC)c1 [Example R-61, (R)-6-chloro-5′-(5-chloro-2-methylpyridin-3-yl)-2′-(2,4-dimethoxyphenyl)-3′-isopropyl-3′H-spiro[dihydroindole-3,4′-pyrrolo[3,4-d]imidazole]-2,6′(5′H)-dione]
MDM2
  IC50: 136 nM
[1]
  IC50: 136 nM

## COc1ccc(C)cc1-c1nc2c(n1C(C)C)[C@]1(C(=O)Nc3cc(Cl)ccc31)N(c1cc(Cl)ccc1C)C2=O [Example R-62, (R)-6-chloro-5′-(5-chloro-2-methylphenyl)-3′-isopropyl-2′-(2-methoxy-5-methylphenyl)-3′H-spiro[dihydroindole-3,4′-pyrrolo[3,4-d]imidazole]-2,6′(5′H)-dione]
MDM2
  IC50: 252 nM
[1]
  IC50: 4360 nM

## COc1cc(N)ccc1-c1nc2c(n1C(C)C)[C@]1(C(=O)Nc3cc(Cl)ccc31)N(c1cc(Cl)ccc1F)C2=O [Example R-66, (R)-2′-(4-amino-2-methoxyphenyl)-6-chloro-5′-(5-chloro-2-fluorophenyl)-3′-isopropyl-3′H-spiro[dihydroindole-3,4′-pyrrolo[3,4-d]imidazole]-2,6′(5′H)-dione]
MDM2
  IC50: 85.9 nM
[1]
  IC50: 3860 nM

## COc1cc(N)ccc1-c1nc2c(n1C(C)C)[C@]1(C(=O)Nc3cc(Cl)ccc31)N(c1cc(F)cc(Cl)c1)C2=O [Example R-67, (R)-2′-(4-amino-2-methoxyphenyl)-6-chloro-5′-(3-chloro-5-fluorophenyl)-3′-isopropyl-3′H-spiro[dihydroindole-3,4′-pyrrolo[3,4-d]imidazole]-2,6′(5′H)-dione]
MDM2
  IC50: 355 nM
[1]
  IC50: 8490 nM
